We go through twelve molecules from patent US20130252935A1, “Monobactams” (PFIZER INC., priority 2010, published 2013).

Converted amounts (≈) assume the structure as drawn.

For orientation: MIC means the lowest concentration found to suppress growth.

Holding throughout (type): cell-based
Assay [1] concerns Pseudomonas aeruginosa UC-12120. Briefly: minimum inhibitory concentration (MIC) testing according to CLSI guidelines, Pseudomonas aeruginosa. Particulars: UC-12120, wild-type, labeled as 1091-05, overnight incubation, lower of duplicate values; for MIC: Pseudomonas aeruginosa, UC12120, read-out: AB-MBT: Pseudomonas aeruginosa 1091-05: MIC (MstRcn). How it is done: (§1) In order to assess the compounds biological activity, the in vitro anti-bacterial activity of selected compounds described in the Examples 1-69 was evaluated by minimum inhibitory concentration (MIC) testing according to Clinical and Laboratory Standards Institute (CLSI, formerly NCCLS) guidelines. See: Clinical and Laboratory Standards Institute. Methods for Dilution Antimicrobial Susceptibility Tests for Bacteria that Grow Aerobically; Approved Standard-Eighth Edition. CLSI document M7-A8 [ISBN 1-56238-689-1]. Clinical and Laboratory Standards Institute, 940 West Valley Road, Suite 1400, Wayne, Pa. 19087-1898 USA, 2006; also Clinical and Laboratory Standards Institute. Performance Standards for Antimicrobial Susceptibility Testing; Twentieth Informational Supplement. CLSI document M100-S20 [ISBN1-56238-716-2]. Clinical and Laboratory Standards Institute.
(§2) The MIC determination is a standard laboratory method for evaluating the antibacterial activity of a compound. The MIC represents the lowest drug concentration that inhibits visible growth of bacteria following overnight incubation. […] Typically, the drug concentration range is broken down into 2-fold increments (e.g. 0.06 μg/mL, 0.12 μg/mL. 0.25 μg/mL, 0.50 μg/mL, 1.0 μg/mL, etc.) and the various drug concentrations are all individually incubated overnight with approximately the same number of bacteria. The MIC is then determined by visually inspecting the drug effect at each concentration, and identifying the lowest drug concentration that has inhibited bacterial growth as compared to the drug free control. Typically, bacteria continue to grow at drug concentrations lower than the MIC and don't grow at concentrations at and above the MIC.
(§3) The MIC values described in Table 1 below were derived from assays wherein each test compound was evaluated in duplicate. In cases where the duplicate values varied by 0-2-fold, the lower of the two values was reported below. Generally speaking, if the duplicate values varied by more than 2-fold, the assay was considered non-valid and was repeated until the variation between duplicate runs was ≦2-fold. In line with the CLSI guidelines referred to above, both control organisms and reference compounds were utilized in each MIC assay to provide proper quality control. MIC values generated with these control organisms and reference compounds were required to fall within a defined range for the assay to be considered valid and be included herein. Those skilled in the art will recognize that MIC values can and do vary from experiment to experiment. Generally speaking, it should be recognized that MIC values often vary +/−2-fold from experiment to experiment. While a single MIC is reported for each compound and each microorganism, the reader should not conclude that each compound was only tested once. Several of the compounds were subjected to multiple tests. The data reported in Table 1 is reflective of the compounds relative activity and different MICs may have been generated on these occasions in light with the guidelines described above.
(§4) The following bacterial strains were used in these MIC determinations:
1) Pseudomonas aeruginosa UC-12120: Wild-type, labeled as 1091-05;

Assay [2] concerns Acinetobacter baumannii/haemolyticus AB-3167. Briefly: minimum inhibitory concentration (MIC) testing according to CLSI guidelines, Acinetobacter. Conditions: multidrug-resistant clinical isolate AB-3167, overnight incubation, lower of duplicate values; for MIC: Acinetobacter baumannii, read-out: AB-MBT: Acinetobacter baumanii AB-3167: MIC (MstRcnt). As for the experimental part: as §1, §2, §3, §4
3) Acinetobacter baumannii/haemolyticus: Multidrug-resistant clinical isolate, labeled as AB-3167.

In assay [3] the test system is Klebsiella pneumoniae 1000-02. The experiment in a line: minimum inhibitory concentration (MIC) testing according to CLSI guidelines, Klebsiella pneumoniae. Particulars: ciprofloxacin-resistant, ESBL-expressing clinical isolate 1000-02, overnight incubation, lower of duplicate values; for MIC: Klebsiella pneumoniae, read-out: AB-MBT: Klebsiella pneumoniae 1000-02: MIC (MstRcnt). As for the experimental part: as §1, §2, §3, §4
2) Klebsiella pneumoniae: Ciprofloxacin-resistant isolate, expresses extended-spectrum beta-lactamases (ESBL), clinical isolate, labeled as 1000-02;

On to `CC(C)(O/N=C(\C(=O)N[C@@H]1C(=O)N(S(=O)(=O)O)[C@@H]1COC(=O)c1csc(-c2cc(=O)c(O)c[nH]2)n1)c1csc(N)n1)C(=O)O` [Example 19, 2-({[(1Z)-1-(2-amino-1,3-thiazol-4-yl)-2-({(2S,3S)-2-[({[2-(5-hydroxy-4-oxo-1,4-dihydropyridin-2-yl)-1,3-thiazol-4-yl]carbonyl}oxy)methyl]-4-oxo-1-sulfoazetidin-3-yl}amino)-2-oxoethylidene]amino}oxy)-2-methylpropanoic acid], for which the values for the MIC in assay [1], in assay [2] and in assay [3] were 0.5 µg/mL (≈ 0.744 µM), 1 µg/mL (≈ 1.49 µM) and 1 µg/mL (≈ 1.49 µM), respectively.

For `C[C@H](O/N=C(\C(=O)N[C@@H]1C(=O)N(S(=O)(=O)O)[C@@H]1CNC(=O)NCc1cc(=O)c(O)cn1O)c1nc(N)sc1Cl)C(=O)O` [Example 34, (2S)-2-({[(1Z)-1-(2-amino-5-chloro-1,3-thiazol-4-yl)-2-({(2R,3S)-2-[({[(1,5-dihydroxy-4-oxo-1,4-dihydropyridin-2-yl)methyl]carbamoyl}amino)methyl]-4-oxo-1-sulfoazetidin-3-yl}amino)-2-oxoethylidene]amino}oxy)propanoic acid], the figures for the MIC in assay [1], in assay [2] and in assay [3] were 0.125 µg/mL (≈ 0.191 µM), 0.25 µg/mL (≈ 0.383 µM) and 0.5 µg/mL (≈ 0.766 µM), respectively.

Regarding `Nc1nc(/C(=N/OC2(C(=O)O)CCC2)C(=O)N[C@@H]2C(=O)N(S(=O)(=O)O)[C@@H]2CNC(=O)CCC(=O)NCc2cc(=O)c(O)cn2O)cs1` [Example 60, 1-({[(1Z)-1-(2-amino-1,3-thiazol-4-yl)-2-{[(2R,3S)-2-{[(4-{[(1,5-dihydroxy-4-oxo-1,4-dihydropyridin-2-yl)methyl]amino}-4-oxobutanoyl)amino]methyl}-4-oxo-1-sulfoazetidin-3-yl]amino}-2-oxoethylidene]amino}oxy)cyclobutanecarboxylic acid], the MIC is 0.125 µg/mL (≈ 0.178 µM) in assay [1], 0.25 µg/mL (≈ 0.357 µM) in assay [2] and 0.5 µg/mL (≈ 0.714 µM) in assay [3].

With `CC(C)(O/N=C(\C(=O)N[C@@H]1C(=O)N(S(=O)(=O)O)[C@@H]1CNS(=O)(=O)c1cccc(C(=O)NCc2cc(=O)c(O)cn2O)c1)c1csc(N)n1)C(=O)O` [Example 68, 2-({[(1Z)-1-(2-amino-1,3-thiazol-4-yl)-2-{[(2R,3S)-2-({[(3-{[(1,5-dihydroxy-4-oxo-1,4-dihydropyridin-2-yl)methyl]carbamoyl}phenyl)sulfonyl]amino}methyl)-4-oxo-1-sulfoazetidin-3-yl]amino}-2-oxoethylidene]amino}oxy)-2-methylpropanoic acid], the results for the minimum inhibitory concentration (MIC) in assay [1], in assay [2] and in assay [3] were 4 µg/mL (≈ 5.18 µM), 4 µg/mL (≈ 5.18 µM) and 1 µg/mL (≈ 1.29 µM), respectively.

For `Nc1nc(/C(=N/OC2(C(=O)O)CCC2)C(=O)N[C@@H]2C(=O)N(S(=O)(=O)O)[C@@H]2CNC(=O)c2cccc(S(=O)(=O)NCc3cc(=O)c(O)cn3O)c2)cs1` [Example 59], the “AB-MBT: Pseudomonas aeruginosa 1091-05: MIC (MstRcn)” value in assay [1] is 0.250 µg/mL. In addition, the “AB-MBT: Acinetobacter baumanii AB-3167: MIC (MstRcnt)” value in assay [2] is 0.250 µg/mL. Further, the “AB-MBT: Klebsiella pneumoniae 1000-02: MIC (MstRcnt)” value in assay [3] is 0.250 µg/mL.

Consider `CC(C)(O/N=C(\C(=O)N[C@@H]1C(=O)N(S(=O)(=O)O)[C@@H]1COC(=O)c1cc(-c2cc(=O)c(O)cn2O)no1)c1csc(N)n1)C(=O)O` [Example 13, 2-({[(1Z)-1-(2-amino-1,3-thiazol-4-yl)-2-({(2S,3S)-2-[({[3-(1,5-dihydroxy-4-oxo-1,4-dihydropyridin-2-yl)isoxazol-5-yl]carbonyl}oxy)methyl]-4-oxo-1-sulfoazetidin-3-yl}amino)-2-oxoethylidene]amino}oxy)-2-methylpropanoic acid], for which the MIC in assay [1] worked out at 0.25 µg/mL (≈ 0.372 µM); in assay [2], 0.5 µg/mL (≈ 0.745 µM); in assay [3], 0.125 µg/mL (≈ 0.186 µM).

`CC(C)(O/N=C(\C(=O)N[C@@H]1C(=O)N(S(=O)(=O)O)[C@@H]1Cn1cc(-c2cc(=O)c(O)cn2O)nn1)c1csc(N)n1)C(=O)O` [Example 3, 2-({[(1Z)-1-(2-amino-1,3-thiazol-4-yl)-2-{[(2R,3S)-2-{[4-(1,5-dihydroxy-4-oxo-1,4-dihydropyridin-2-yl)-1H-1,2,3-triazol-1-yl]methyl}-4-oxo-1-sulfoazetidin-3-yl]amino}-2-oxoethylidene]amino}oxy)-2-methylpropanoic acid]: the minimum inhibitory concentration (MIC) in assay [1] turned out to be 0.125 µg/mL (≈ 0.199 µM); in assay [2], 0.5 µg/mL (≈ 0.797 µM); in assay [3] it was 0.25 µg/mL (≈ 0.398 µM).

Consider `CC(C)(O/N=C(\C(=O)N[C@@H]1C(=O)N(S(=O)(=O)O)[C@@H]1COC(=O)c1ccnc(-c2cc(=O)c(O)c[nH]2)n1)c1csc(N)n1)C(=O)O` [Example 21, 2-({[(1Z)-1-(2-amino-1,3-thiazol-4-yl)-2-({(2S,3S)-2-[({[2-(5-hydroxy-4-oxo-1,4-dihydropyridin-2-yl)pyrimidin-4-yl]carbonyl}oxy)methyl]-4-oxo-1-sulfoazetidin-3-yl}amino)-2-oxoethylidene]amino}oxy)-2-methylpropanoic acid], for which the MIC in assay [1] was 8 µg/mL (≈ 12 µM); in assay [2], above 64 µg/mL; in assay [3], 64 µg/mL (≈ 96 µM).

As to `CC(C)(O/N=C(\C(=O)N[C@@H]1C(=O)N(S(=O)(=O)O)[C@@H]1CNC(=O)OCc1cc(-c2cc(=O)c(O)cn2O)no1)c1csc(N)n1)C(=O)O` [Example 38, 2-(5-{[({[(2R,3S)-3-{[(2Z)-2-(2-amino-1,3-thiazol-4-yl)-2-{[(2-carboxypropan-2-yl)oxy]imino}acetyl]amino}-4-oxo-1-sulfoazetidin-2-yl]methyl}carbamoyl)oxy]methyl}isoxazol-3-yl)-1,5-dihydroxy-4-oxo-1,4-dihydropyridinium], the “AB-MBT: Pseudomonas aeruginosa 1091-05: MIC (MstRcn)” value in assay [1] is 2.0 µg/mL. Besides, the “AB-MBT: Acinetobacter baumanii AB-3167: MIC (MstRcnt)” value in assay [2] amounted to 0.5 µg/mL. In assay [3], the “AB-MBT: Klebsiella pneumoniae 1000-02: MIC (MstRcnt)” value worked out at 0.5 µg/mL.

For `CC(C)(O/N=C(\C(=O)N[C@@H]1C(=O)N(S(=O)(=O)O)[C@@H]1CNC(=O)C1CN(Cc2cc(=O)c(O)c[nH]2)C1)c1csc(N)n1)C(=O)O` [Example 9, 2-({[(1Z)-1-(2-amino-1,3-thiazol-4-yl)-2-{[(2R,3S)-2-{[({1-[(5-hydroxy-4-oxo-1,4-dihydropyridin-2-yl)methyl]azetidin-3-yl}carbonyl)amino]methyl}-4-oxo-1-sulfoazetidin-3-yl]amino}-2-oxoethylidene]amino}oxy)-2-methylpropanoic acid], the MIC in assay [1] was found to be 4 µg/mL (≈ 6.09 µM); in assay [2] it was 2 µg/mL (≈ 3.05 µM); in assay [3] it was 4 µg/mL (≈ 6.09 µM).

Consider `CC(C)(O/N=C(\C(=O)N[C@@H]1C(=O)N(S(=O)(=O)O)[C@@H]1CNC(=O)NCc1cc(=O)c(O)cn1O)c1nsc(N)n1)C(=O)O` [Example 33, 2-({[(1Z)-1-(5-amino-1,2,4-thiadiazol-3-yl)-2-({(2R,3S)-2-[({[(1,5-dihydroxy-4-oxo-1,4-dihydropyridin-2-yl)methyl]carbamoyl}amino)methyl]-4-oxo-1-sulfoazetidin-3-yl}amino)-2-oxoethylidene]amino}oxy)-2-methylpropanoic acid], for which the MIC in assay [1] turned out to be 0.25 µg/mL (≈ 0.395 µM); in assay [2], 0.5 µg/mL (≈ 0.789 µM); in assay [3], 2 µg/mL (≈ 3.16 µM).

Turning to `CC(C)(O/N=C(\C(=O)N[C@@H]1C(=O)N(S(=O)(=O)O)[C@@H]1CNS(=O)(=O)NCc1cc(=O)c(O)cn1O)c1csc(N)n1)C(=O)O` [Example 37, 2-({[(1Z)-1-(2-amino-1,3-thiazol-4-yl)-2-{[(2R,3S)-2-{[({[(1,5-dihydroxy-4-oxo-1,4-dihydropyridin-2-yl)methyl]amino}sulfonyl)amino]methyl}-4-oxo-1-sulfoazetidin-3-yl]amino}-2-oxoethylidene]amino}oxy)-2-methylpropanoic acid], the minimum inhibitory concentration (MIC) in assay [1] amounted to 1 µg/mL (≈ 1.5 µM); in assay [2], 2 µg/mL (≈ 2.99 µM); in assay [3], 4 µg/mL (≈ 5.98 µM).
